{
  "source": "patent US11339447B2",
  "about": "“System and method for determining Kareniticin sensitivity on cancer” (CROWN BIOSCIENCE, INC. (TAICANG), priority 2017, dated 2022)",
  "assay_in_all_cases": "karenitecin treatment of PDX model",
  "format_in_all_cases": "in vivo",
  "parameters_in_all_cases": "key to Response: responder: responded to karenitecin treatment (AUC<0.5 and TGI>0.8); non_responder: did not respond to karenitecin treatment (AUC>0.5 and TGI<0.6)",
  "settings_in_all_cases": "karenitecin treatment for two weeks",
  "key": {"PDX ES0110": {"test_system": "PDX ES0110", "procedure": "(§1) A cohort of 48 PDX models in 8 cancers were used in this study. Those models were subject to karenitecin treatment for two weeks. Both tumor growth inhibition (TGI) and median AUC (area under curve) ratio, a newly developed metric to evaluate drug efficacy, were calculated (Table 1). Those models can be divided into two categories according to TGI and median AUC ratio."}, "PDX CR0126": {"test_system": "PDX CR0126", "procedure": "as §1"}, "PDX LU6429": {"test_system": "PDX LU6429", "procedure": "as §1"}, "PDX CR1451": {"test_system": "PDX CR1451", "procedure": "as §1"}, "PDX CR1560": {"test_system": "PDX CR1560", "procedure": "as §1"}, "PDX ES0176": {"test_system": "PDX ES0176", "procedure": "as §1"}, "PDX CR0133": {"test_system": "PDX CR0133", "procedure": "as §1"}, "PDX GA0098": {"test_system": "PDX GA0098", "procedure": "as §1"}, "PDX PA3029": {"test_system": "PDX PA3029", "procedure": "as §1"}, "PDX CR3085": {"test_system": "PDX CR3085", "procedure": "as §1"}, "PDX ES0201": {"test_system": "PDX ES0201", "procedure": "as §1"}, "PDX OV1658": {"test_system": "PDX OV1658", "procedure": "as §1"}, "PDX CR2524": {"test_system": "PDX CR2524", "procedure": "as §1"}, "PDX OV0243": {"test_system": "PDX OV0243", "procedure": "as §1"}, "PDX LU2071": {"test_system": "PDX LU2071", "procedure": "as §1"}, "PDX ES0212": {"test_system": "PDX ES0212", "procedure": "as §1"}, "PDX LU1542": {"test_system": "PDX LU1542", "procedure": "as §1"}, "PDX ES2267": {"test_system": "PDX ES2267", "procedure": "as §1"}},
  "data": [
    {"compound": "CC[C@@]1(O)C(=O)OCc2c1cc1n(c2=O)Cc2c-1nc1ccccc1c2CC[Si](C)(C)C", "note": "[karenitecin]", "values": [
      {"measurement": "Median AUC ratio", "setting": "PDX ES0110", "result": 0.344},
      {"measurement": "Response", "setting": "PDX ES0110", "result": "responder"},
      {"measurement": "TGI", "setting": "PDX ES0110", "result": 1.010},
      {"measurement": "Median AUC ratio", "setting": "PDX CR0126", "result": 1.399},
      {"measurement": "Response", "setting": "PDX CR0126", "result": "non_responder"},
      {"measurement": "TGI", "setting": "PDX CR0126", "result": "−0.308"},
      {"measurement": "Median AUC ratio", "setting": "PDX LU6429", "result": 1.106},
      {"measurement": "Response", "setting": "PDX LU6429", "result": "non_responder"},
      {"measurement": "TGI", "setting": "PDX LU6429", "result": 0.241},
      {"measurement": "Median AUC ratio", "setting": "PDX CR1451", "result": 0.069},
      {"measurement": "Response", "setting": "PDX CR1451", "result": "responder"},
      {"measurement": "TGI", "setting": "PDX CR1451", "result": 1.173},
      {"measurement": "Median AUC ratio", "setting": "PDX CR1560", "result": 0.397},
      {"measurement": "Response", "setting": "PDX CR1560", "result": "responder"},
      {"measurement": "TGI", "setting": "PDX CR1560", "result": 1.146},
      {"measurement": "Median AUC ratio", "setting": "PDX ES0176", "result": 1.242},
      {"measurement": "Response", "setting": "PDX ES0176", "result": "non_responder"},
      {"measurement": "TGI", "setting": "PDX ES0176", "result": "−0.177"},
      {"measurement": "Median AUC ratio", "setting": "PDX CR0133", "result": 0.275},
      {"measurement": "Response", "setting": "PDX CR0133", "result": "responder"},
      {"measurement": "TGI", "setting": "PDX CR0133", "result": 0.905},
      {"measurement": "Median AUC ratio", "setting": "PDX GA0098", "result": 0.512},
      {"measurement": "Response", "setting": "PDX GA0098", "result": "non_responder"},
      {"measurement": "TGI", "setting": "PDX GA0098", "result": 0.482},
      {"measurement": "Median AUC ratio", "setting": "PDX PA3029", "result": 0.768},
      {"measurement": "Response", "setting": "PDX PA3029", "result": "non_responder"},
      {"measurement": "TGI", "setting": "PDX PA3029", "result": 0.423},
      {"measurement": "Median AUC ratio", "setting": "PDX CR3085", "result": 0.019},
      {"measurement": "Response", "setting": "PDX CR3085", "result": "responder"},
      {"measurement": "TGI", "setting": "PDX CR3085", "result": 1.051},
      {"measurement": "Median AUC ratio", "setting": "PDX ES0201", "result": 1.093},
      {"measurement": "Response", "setting": "PDX ES0201", "result": "non_responder"},
      {"measurement": "TGI", "setting": "PDX ES0201", "result": 0.529},
      {"measurement": "Median AUC ratio", "setting": "PDX OV1658", "result": 0.764},
      {"measurement": "Response", "setting": "PDX OV1658", "result": "non_responder"},
      {"measurement": "TGI", "setting": "PDX OV1658", "result": 0.433},
      {"measurement": "Median AUC ratio", "setting": "PDX CR2524", "result": 0.333},
      {"measurement": "Response", "setting": "PDX CR2524", "result": "responder"},
      {"measurement": "TGI", "setting": "PDX CR2524", "result": 1.120},
      {"measurement": "Median AUC ratio", "setting": "PDX OV0243", "result": "−1.983"},
      {"measurement": "Response", "setting": "PDX OV0243", "result": "responder"},
      {"measurement": "TGI", "setting": "PDX OV0243", "result": 1.449},
      {"measurement": "Median AUC ratio", "setting": "PDX LU2071", "result": 0.037},
      {"measurement": "Response", "setting": "PDX LU2071", "result": "responder"},
      {"measurement": "TGI", "setting": "PDX LU2071", "result": 1.099},
      {"measurement": "Median AUC ratio", "setting": "PDX ES0212", "result": 0.061},
      {"measurement": "Response", "setting": "PDX ES0212", "result": "responder"},
      {"measurement": "TGI", "setting": "PDX ES0212", "result": 1.017},
      {"measurement": "Median AUC ratio", "setting": "PDX LU1542", "result": "−3.610"},
      {"measurement": "Response", "setting": "PDX LU1542", "result": "responder"},
      {"measurement": "TGI", "setting": "PDX LU1542", "result": 1.195},
      {"measurement": "Median AUC ratio", "setting": "PDX ES2267", "result": "−0.288"},
      {"measurement": "Response", "setting": "PDX ES2267", "result": "responder"},
      {"measurement": "TGI", "setting": "PDX ES2267", "result": 1.240}
    ]}
  ]
}
